According to US20120214748A1, “NOVEL PEPTIDES, PROCESS FOR PREPARATION THEREOF, AND USE THEREOF” (priority 2009, published 2012):
Like-named read-outs stand apart in the source and are kept apart here. Bridge positions count the residues as written; N and C are the ends. Peptide text beside a SMILES is read from it.

Key:
Trypsin = target: T1, Trypsin (Bos taurus, UniProt P00760); assay: Trypsin inhibition on Z-L-Lys-SBzl substrate
T1 sequence (P00760 24-246): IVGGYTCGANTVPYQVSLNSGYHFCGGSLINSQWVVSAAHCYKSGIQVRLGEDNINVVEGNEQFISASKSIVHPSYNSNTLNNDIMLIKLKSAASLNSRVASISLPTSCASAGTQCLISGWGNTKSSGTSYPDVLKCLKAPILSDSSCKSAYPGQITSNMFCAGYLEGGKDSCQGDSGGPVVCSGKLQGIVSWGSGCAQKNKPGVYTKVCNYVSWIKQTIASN

[1] = system: lectin pathway of the complement system; assay: WIELISA complement assay, lectin pathway; type: biochemical; settings: serum, FIG. 7
Procedure: (§1) For measuring we used the so-called WIELISA kit (Euro-Diagnostica AB, COMPL300) developed for the selective measuring of the complement pathways, on the basis of the instructions for use attached to the kit. […] At the same time, the product detected during measuring is not a pathway-selective component, but the last element of the joint section of the activation pathways, the C5-9 complex.
(§2) The serum was diluted according to the prescriptions with the buffer belonging to the given complement pathway, it was incubated for 20 minutes at room temperature, the dilution sequence prepared from peptides was added to it, it was incubated for 20 minutes at room temperature, then it was pipetted into the appropriate wells of a special ELISA plate. In the following, washing, incubation and antibody addition was performed according to the instructions for use. It was incubated for 20 minutes with the substrate, and then the data was read at 450 nm in a spectrophotometer. A parallel belonged to each measuring point, 100% activity was represented by the serum without an inhibitor. The measurements were performed at the same time and on the same plate, from one single melted serum sample.

[2] = system: blood coagulation (thrombin operation); assay: Thrombin time (TT) in blood plasma; settings: peptide 200 μM, FIG. 6.a
Procedure: (§3) We performed blood coagulation measurements using blood plasma taken from healthy individuals. From the blood obtained through venipuncture and treated with sodium citrate (3.8% wt/vol) the plasma was isolated by centrifugation (2000 g, 15 minutes, Jouan CR412 centrifuge).
(§4) Prothrombin time (PT) testing the extrinsic pathway of blood coagulation was measured on Sysmex® CA-500 (Sysmex, Japan) automatic system using Innovin® Reagent (Dale Behring, Marburg, Germany). Activated partial thromboplastin time (APTT) testing the intrinsic pathway of blood coagulation and thrombin time (TT) directly testing thrombin operation was measured on a Coag-A-Mate® MAX (BioMerieux, France) analyser using TriniClot™ reagent (Trinity Biotech, Wichlow, Ireland) and Reanal™ reagent (Reanal Finechemical, Hungary).
(§5) To examine the effects of peptides on blood coagulation we measured dose dependency, the results are shown on the graphs in FIG. 6. […] On the ordinates time is determined in seconds, while on the abscissas the logarithm of the inhibitor concentration is shown in μM.
(§6) FIG. 6.a illustrates an experiment for measuring thrombin time, in the course of which plasma coagulation (fibrin formation) is initiated by adding thrombin to the plasma. […] The members of this protease cascade are inhibited with peptide used in increasing concentrations (abscissa), and the time needed for coagulation is measured (ordinate).

[3] = system: alternative pathway of the complement system; assay: WIELISA complement assay, alternative pathway; type: biochemical; settings: serum, FIG. 7
Procedure: as §1, §2

[4] = system: classical pathway of the complement system; assay: WIELISA complement assay, classical pathway; type: biochemical; settings: serum, FIG. 7
Procedure: as §1, §2

[5] = system: intrinsic pathway of blood coagulation; assay: Activated partial thromboplastin time (APTT) in blood plasma; settings: peptide 200 μM, FIG. 6.c
Procedure: as §3, §4, §5, §6

Thrombin = Thrombin (Homo sapiens, UniProt P00734); assay: Thrombin inhibition with Z-Gly-Pro-Arg-pNa substrate; type: biochemical
[6] = system: extrinsic pathway of blood coagulation; assay: Prothrombin time (PT) in blood plasma; settings: peptide 200 μM, FIG. 6.b
Procedure: as §3, §4, §5, §6

MASP-2 CCP1-CCP2-SP = target: T2, MASP-2 CCP1-CCP2-SP (Homo sapiens, UniProt O00187); assay: Ki determination with synthetic substrate Z-L-Lys-SBzl on MASP-2; type: biochemical; settings: NG = inhibition could not be measured even at the highest inhibitor concentration used
T2 construct: Human MASP-targets consist of a serine-protease (SP) domain and two complement control protein domains (CCP-1,-2); made in house

MASP-1 CCP1-CCP2-SP = target: T3, MASP-1 CCP1-CCP2-SP (Homo sapiens, UniProt P48740); assay: Ki determination with synthetic substrate Z-L-Lys-SBzl on MASP-1; type: biochemical
T3 construct: Human MASP-targets consist of a serine-protease (SP) domain and two complement control protein domains (CCP-1,-2); made in house
T3 sequence (P48740 449-699 limits assumed): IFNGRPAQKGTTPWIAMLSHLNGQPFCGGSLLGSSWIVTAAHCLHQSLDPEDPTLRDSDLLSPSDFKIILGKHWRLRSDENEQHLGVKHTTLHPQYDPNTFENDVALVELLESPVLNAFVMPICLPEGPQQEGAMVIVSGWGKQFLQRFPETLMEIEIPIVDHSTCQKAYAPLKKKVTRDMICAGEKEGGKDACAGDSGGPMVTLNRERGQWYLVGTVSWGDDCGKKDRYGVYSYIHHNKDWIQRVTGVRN
T3 sequence (P48740 298-448 partner limits assumed): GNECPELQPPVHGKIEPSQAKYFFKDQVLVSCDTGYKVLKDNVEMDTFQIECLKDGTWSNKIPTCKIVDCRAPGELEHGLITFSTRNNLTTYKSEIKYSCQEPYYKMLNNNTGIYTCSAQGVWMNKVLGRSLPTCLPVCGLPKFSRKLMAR

MASP enzymes [7] = assay: Preliminary experiments: binding of SGCI to MASP enzymes
MASP enzymes [8] = assay: Preliminary experiments: inhibition of MASP enzymes by SGCI; type: biochemical

T2 sequence (O00187 445-686 limits assumed): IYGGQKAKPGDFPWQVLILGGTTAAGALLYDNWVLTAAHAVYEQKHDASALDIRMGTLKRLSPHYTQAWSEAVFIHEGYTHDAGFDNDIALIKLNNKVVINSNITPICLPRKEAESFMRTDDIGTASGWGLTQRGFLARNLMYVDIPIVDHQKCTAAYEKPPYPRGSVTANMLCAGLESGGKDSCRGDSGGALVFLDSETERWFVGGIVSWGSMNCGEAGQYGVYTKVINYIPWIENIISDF
T2 sequence (O00187 287-444 partner limits assumed): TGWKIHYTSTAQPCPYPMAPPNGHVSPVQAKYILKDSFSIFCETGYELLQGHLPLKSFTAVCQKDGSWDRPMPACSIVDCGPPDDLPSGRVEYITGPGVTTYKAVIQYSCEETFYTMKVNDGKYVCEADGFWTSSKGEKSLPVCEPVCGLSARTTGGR

## CC[C@H](C)[C@@H]1NC(=O)[C@@H]2CCCN2C(=O)[C@@H]2CCCN2C(=O)[C@H](CC(C)C)NC(=O)[C@H](CO)NC(=O)[C@H](CCCNC(=N)N)NC(=O)[C@H](CO)NC(=O)[C@@H](NC(=O)[C@@H](NC(=O)CN)C(C)C)CSSC[C@@H](C(=O)N[C@@H](Cc2c[nH]c3ccccc23)C(=O)N2CCC[C@H]2C(=O)N[C@@H](CC(=O)O)C(=O)O)NC1=O [M1-3E-Y12W] (H-GVCSRSLPPICWPD-OH; disulfide 3-11; N-terminus and C-terminus assumed)
Trypsin
  Ki: 170 nM

## CC[C@H](C)[C@@H]1NC(=O)CNC(=O)[C@H](CC(=O)O)NC(=O)[C@@H]2CCCN2C(=O)[C@H]([C@@H](C)CC)NC(=O)[C@@H]2CSSC[C@H](NC1=O)C(=O)N[C@@H](CO)C(=O)N[C@@H](CCCNC(=N)N)C(=O)N[C@@H](CO)C(=O)N[C@@H](CC(C)C)C(=O)N1CCC[C@H]1C(=O)N1CCC[C@H]1C(=O)N[C@@H]([C@@H](C)CC)C(=O)N2 [M2-4G cyclic] (cyclo(CIPDGICSRSLPPI); disulfide 1-7)
Trypsin
  Ki: 350 nM

## CC[C@H](C)[C@H](NC(=O)CN)C(=O)N[C@H]1CSSC[C@@H](C(=O)N[C@H](C(=O)N2CCC[C@H]2C(=O)N[C@@H](CC(=O)O)C(=O)O)[C@@H](C)CC)NC(=O)[C@H]([C@@H](C)CC)NC(=O)[C@@H]2CCCN2C(=O)[C@@H]2CCCN2C(=O)[C@H](CC(C)C)NC(=O)[C@H](CO)NC(=O)[C@H](CCCNC(=N)N)NC(=O)[C@H](CO)NC1=O [M2-4G] (H-GICSRSLPPICIPD-OH; disulfide 3-11; N-terminus and C-terminus assumed)
[1]
  inhibition of the lectin pathway (C5-9 complex): efficient and specific inhibitors of the lectin pathway
[2]
  thrombin time, effect on coagulation: reached the extreme measuring value
Trypsin
  Ki: 260 nM
  trypsin inhibition compared to wild-type SFTI-1: much weaker on trypsin than wild-type SFTI-1
[3]
  inhibition of the alternative pathway (C5-9 complex): neither “S” peptide nor the “NS” peptide inhibited
[4]
  inhibition of the classical pathway (C5-9 complex): neither “S” peptide nor the “NS” peptide inhibited
[5]
  activated thromboplastin time, effect on coagulation: reached the extreme measuring value
Thrombin
  thrombin inhibition: poor thrombin inhibitor
Thrombin; read-out: Ki value on thrombin
  Ki: 10000 nM
[6]
  prothrombin time, effect on coagulation: reached the extreme measuring value

## CC[C@H](C)[C@H](NC(=O)[C@@H]1CSSC[C@H](NC(=O)[C@H](CCSC)NC(=O)CN)C(=O)N[C@@H](CO)C(=O)N[C@@H](CCCNC(=N)N)C(=O)N[C@@H](CO)C(=O)N[C@@H](Cc2ccc(O)cc2)C(=O)N2CCC[C@H]2C(=O)N2CCC[C@H]2C(=O)N[C@@H](C(C)C)C(=O)N1)C(=O)N1CCC[C@H]1C(=O)N[C@@H](CC(=O)O)C(=O)O [M2-6E-Y2M] (H-GMCSRSYPPVCIPD-OH; disulfide 3-11; N-terminus and C-terminus assumed)
Trypsin
  Ki: 4000 nM

## CC[C@H](C)[C@H](NC(=O)[C@@H]1CSSC[C@H](NC(=O)[C@H](Cc2c[nH]c3ccccc23)NC(=O)CN)C(=O)N[C@@H](CO)C(=O)N[C@@H](CCCNC(=N)N)C(=O)N[C@@H](CO)C(=O)N[C@@H](Cc2ccc(O)cc2)C(=O)N2CCC[C@H]2C(=O)N2CCC[C@H]2C(=O)N[C@@H](C(C)C)C(=O)N1)C(=O)N1CCC[C@H]1C(=O)N[C@@H](CC(=O)O)C(=O)O [M2-6E-Y2W] (H-GWCSRSYPPVCIPD-OH; disulfide 3-11; N-terminus and C-terminus assumed)
Trypsin
  Ki: 1700 nM

## CC[C@H](C)[C@H](NC(=O)[C@@H]1CSSC[C@H](NC(=O)[C@H](Cc2ccc(O)cc2)NC(=O)CN)C(=O)N[C@@H](CO)C(=O)N[C@@H](CCCNC(=N)N)C(=O)N[C@@H](CO)C(=O)N[C@@H]([C@@H](C)CC)C(=O)N2CCC[C@H]2C(=O)N2CCC[C@H]2C(=O)N[C@@H](C(C)C)C(=O)N1)C(=O)N1CCC[C@H]1C(=O)N[C@@H](CC(=O)O)C(=O)O [M2-6E-Y7I] (H-GYCSRSIPPVCIPD-OH; disulfide 3-11; N-terminus and C-terminus assumed)
Trypsin
  Ki: 160 nM

## CC[C@H](C)[C@H](NC(=O)[C@@H]1CSSC[C@H](NC(=O)[C@H](Cc2ccc(O)cc2)NC(=O)CN)C(=O)N[C@@H](CO)C(=O)N[C@@H](CCCNC(=N)N)C(=O)N[C@@H](CO)C(=O)N[C@@H](Cc2ccc(O)cc2)C(=O)N2CCC[C@H]2C(=O)N2CCC[C@H]2C(=O)N[C@@H](C(C)C)C(=O)N1)C(=O)N1CCC[C@H]1C(=O)N[C@@H](CC(=O)O)C(=O)O [M2-6E] (H-GYCSRSYPPVCIPD-OH; disulfide 3-11; N-terminus and C-terminus assumed)
[1]
  inhibition of the lectin pathway (C5-9 complex): efficient and specific inhibitors of the lectin pathway
[2]
  thrombin time, effect on coagulation: remained near the normal range
MASP-2 CCP1-CCP2-SP
  Ki: 180 nM
Trypsin
  Ki: 1000 nM
Trypsin; compared with wild-type SFTI
  activity on trypsin, lower by: 4 orders of magnitude
[3]
  inhibition of the alternative pathway (C5-9 complex): neither “S” peptide nor the “NS” peptide inhibited
MASP-1 CCP1-CCP2-SP
  activity on MASP-1: not active on MASP-1
[4]
  inhibition of the classical pathway (C5-9 complex): neither “S” peptide nor the “NS” peptide inhibited
[5]
  activated thromboplastin time, effect on coagulation: remained near the normal range
Thrombin
  thrombin inhibition: very poor thrombin inhibitor
Thrombin; read-out: KI Thrombin
  Ki: 550000 nM
[6]
  prothrombin time, effect on coagulation: remained near the normal range

## CC[C@H](C)[C@@H]1NC(=O)[C@@H]2CCCN2C(=O)[C@@H]2CCCN2C(=O)[C@H]([C@@H](C)CC)NC(=O)[C@H](CO)NC(=O)[C@H](CCCCN)NC(=O)[C@H]([C@@H](C)O)NC(=O)[C@@H](NC(=O)[C@H](CCCNC(=N)N)NC(=O)CN)CSSC[C@@H](C(=O)N[C@@H](Cc2ccccc2)C(=O)N2CCC[C@H]2C(=O)N[C@@H](CC(=O)O)C(=O)O)NC1=O [wild-type SFTI, reference compound]
Thrombin
  Ki: 140000 nM

## SGCI: Schistocerca Gregaria Chymotrypsin Inhibitor, chymotrypsin inhibitor molecule fused to the SFTI library for monovalent phage display (EVTCEPGTTFKDKCNTCRCGSDGKSAACTLKACPQ)
MASP enzymes [7]
  binding to MASP enzymes: does not even bind to these enzymes
MASP enzymes [8]
  inhibition of MASP enzymes: does not inhibit MASP enzymes
